Key:
[1] = refractive index (Na D-line) (dimensionless); details: 101.33 kPa, Liquid, Standard Abbe refractometry
[2] = for mass density / viscosity / electrical conductivity: 101.33 kPa, Liquid; for mass density: Vibrating tube method; for surface tension liquid-gas: plate method; for electrical conductivity: Alternating current cell with electrodes

CC(C)C[NH2+]CCCCS(=O)(=O)O.O=S(=O)([O-])O [N-isobutyl-4-sulfobutan-1-aminium hydrogen sulfate]
Details	electrical conductivity, [2] [S/m]	mass density, [2] [kg/m3]	refractive index, [1]	surface tension liquid-gas, [2] [mN/m]	viscosity, [2] [mPa·s]
293.15 K	–	1359.08	1.48143	–	–
298.15 K	0.593	–	1.4803	47.15	14433
303.15 K	0.757	1353.21	1.47918	46.79	9450
308.15 K	1.04	–	1.47804	46.48	6033
313.15 K	1.32	1347.39	1.47689	46.12	4267
318.15 K	1.65	–	1.47576	45.74	2967
323.15 K	2.16	1341.63	1.47461	45.3	2117
328.15 K	2.53	–	1.4734	44.93	1550
333.15 K	3.01	1335.95	1.47212	–	1033
338.15 K	3.67	–	–	–	766.7
343.15 K	4.29	1330.29	–	–	633.3
348.15 K	4.96	–	–	–	483.3
353.15 K	5.61	1324.66	–	–	383.3
358.15 K	–	–	–	–	316.7
363.15 K	–	1319.09	–	–	266.7
368.15 K	–	–	–	–	200
373.15 K	–	–	–	–	166.7

CC(C)C[NH2+]CCCS(=O)(=O)O.O=S(=O)([O-])O [N-isobutyl-3-sulfopropan-1-aminium hydrogen sulfate]
Details	electrical conductivity, [2] [S/m]	mass density, [2] [kg/m3]	refractive index, [1]	surface tension liquid-gas, [2] [mN/m]	viscosity, [2] [mPa·s]
293.15 K	–	1387.92	1.50559	–	–
298.15 K	0.00856	–	1.50436	52.18	–
303.15 K	0.0145	1383.65	1.50314	51.64	–
308.15 K	0.0235	–	1.50205	51.14	14383
313.15 K	0.0367	1377.6	1.5008	50.69	9083
318.15 K	0.0526	–	1.49974	50.15	5533
323.15 K	0.0713	1371.59	1.49851	49.58	3833
328.15 K	0.104	–	1.49756	48.98	2867
333.15 K	0.14	1365.64	1.4963	–	1983
338.15 K	0.177	–	–	–	1333
343.15 K	0.221	1359.71	–	–	1033
348.15 K	0.28	–	–	–	766.7
353.15 K	0.353	1353.8	–	–	616.7
358.15 K	–	–	–	–	483.3
363.15 K	–	1347.97	–	–	416.7
368.15 K	–	–	–	–	333.3
373.15 K	–	–	–	–	283.3

From the NIST ThermoML archive (doi:10.1021/je5001507)
